pEC50: −log10 of the molar value. Like-named read-outs stand apart in the source and are kept apart here.
Assays:
human CB1R = molecular target: T1, human CB1R (Homo sapiens, UniProt P21554); assay: CB1R mediated modulation of cAMP synthesis; format: cell-based
T1 construct: host or cells: CHO cells
Method: C. CB1R Mediated Modulation of cAMP Synthesis:
Compounds of the invention are evaluated for their CB1 agonist or inverse agonistic activity in accordance with the following experimental method.
(§1) CHO cells expressing human CB1R (Euroscreen) are plated at a density of 5000 cells per well in 384 well plates and incubated overnight at 37° C. After removing the media, the cells are treated with test compounds diluted in stimulation buffer containing 1 mM IBMX, 0.25% BSA and 10 uM Forskolin. The assay is incubated for 30 minutes at 37° C. Cells are lysed and the cAMP concentration is measured using DiscoverX-XS cAMP kit, following the manufacturer's protocol. In this setting, agonists will decrease forskolin induced production of cAMP while inverse agonists will further increase forskolin induced production of cAMP. EC50 of agonists are calculated as follows. The maximal amount of cAMP produced by forskolin compared to the level of cAMP inhibited by 1 uM CP55940 is defined as 100%. The EC50 value of each test compound is determined as the concentration at which 50% of the forskolin-stimulated cAMP synthesis is inhibited. Data is analyzed using a four-parameter logistic model. (Model 205 of XLfit 4.0).

human CB2R = molecular target: T2, human CB2R (Homo sapiens, UniProt P34972); assay: CB2R mediated modulation of cAMP synthesis; format: cell-based
T2 construct: host or cells: CHO cells
Method: B. CB2R Mediated Modulation of cAMP Synthesis:
Compounds of the invention are evaluated for their CB2 agonist or inverse agonistic activity in accordance with the following experimental method.
as §1, with “CB2R” for “CB1R”

[1] = CHO cells expressing human CB1R, inhibition of forskolin-stimulated cAMP synthesis, read-out: CB1 EC50
[2] = CHO cells expressing human CB2R, inhibition of forskolin-stimulated cAMP synthesis, read-out: CB2 EC50

T1 sequence (P21554 whole entry): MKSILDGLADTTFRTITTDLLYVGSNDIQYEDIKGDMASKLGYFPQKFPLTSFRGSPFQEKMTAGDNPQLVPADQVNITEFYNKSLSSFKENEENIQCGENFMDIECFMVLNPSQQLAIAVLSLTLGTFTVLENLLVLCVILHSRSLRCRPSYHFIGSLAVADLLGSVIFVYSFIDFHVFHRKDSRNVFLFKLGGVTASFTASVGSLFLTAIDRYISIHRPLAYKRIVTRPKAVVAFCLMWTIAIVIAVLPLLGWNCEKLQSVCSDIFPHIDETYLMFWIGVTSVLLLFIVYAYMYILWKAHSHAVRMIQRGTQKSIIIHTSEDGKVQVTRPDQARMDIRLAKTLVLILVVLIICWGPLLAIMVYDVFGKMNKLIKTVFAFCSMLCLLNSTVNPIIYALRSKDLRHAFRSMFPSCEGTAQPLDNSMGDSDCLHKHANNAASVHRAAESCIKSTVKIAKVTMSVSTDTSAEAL
T2 sequence (P34972 whole entry): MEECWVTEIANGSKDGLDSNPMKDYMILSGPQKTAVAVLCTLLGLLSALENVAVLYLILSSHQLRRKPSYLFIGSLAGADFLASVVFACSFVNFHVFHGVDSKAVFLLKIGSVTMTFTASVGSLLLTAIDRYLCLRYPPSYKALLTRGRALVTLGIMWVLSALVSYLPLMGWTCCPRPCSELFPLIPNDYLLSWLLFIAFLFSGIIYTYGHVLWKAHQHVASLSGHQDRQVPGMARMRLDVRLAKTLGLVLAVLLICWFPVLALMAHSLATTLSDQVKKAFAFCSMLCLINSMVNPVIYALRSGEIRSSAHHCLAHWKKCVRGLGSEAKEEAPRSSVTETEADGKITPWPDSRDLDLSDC

| SMILES | pEC50 (human CB1R; [1]) | pEC50 (human CB2R; [2]) | pEC50 (human CB1R) | pEC50 (human CB2R) | further results |
| --- | --- | --- | --- | --- | --- |
| COCC(C)(C)c1cc(NC(=O)C(C)(C)NC2CCOCC2)on1 | < 4.70 | 6.50 |  |  |  |
| CN(C1CCOCC1)C(C)(C)C(=O)Nc1cc(C(C)(C)CO)no1 |  |  | < 4.30 | 7.25 |  |
| CC(C)(CO)c1cc(NC(=O)C(C)(C)N2CCCCC2)on1 |  |  | 4.66 | 7.55 |  |
| CC(C)N(C)C(C)(C)C(=O)Nc1cc(C(C)(C)CO)no1 | < 4.30 | 6.61 |  |  |  |
| CC(C)(NC1CCN(S(C)(=O)=O)CC1)C(=O)Nc1cc(C(C)(C)CO)no1 | < 4.30 | 6.52 |  |  |  |
| COCC(C)(C)c1cc(NC(=O)C(C)(C)NCC2CCOCC2)no1 | < 4.70 | 6.88 |  |  |  |
| COCC(C)(C)c1cc(NC(=O)C(C)(C)NC2CCOCC2)no1 | < 4.70 | 6.47 |  |  |  |
| COCCOCC(C)(C)c1cc(NC(=O)C(C)(C)N(C)C2CCOCC2)on1 | < 4.30 | 6.61 |  |  |  |
| C[C@H](O)C(C)(C)c1cc(NC(=O)C(C)(C)N(C)C2CCOCC2)on1 |  |  | 4.35 | 7.55 |  |
| CN(C1CCOCC1)C(C)(C)C(=O)Nc1cc(C2(CO)CCCC2)no1 |  |  | 4.67 | 7.68 |  |
| CN(C1CCOCC1)C(C)(C)C(=O)Nc1cc(C2(CO)CCC2)no1 |  |  | < 4.30 | 7.18 |  |
| COCCOC(C)(C)c1cc(NC(=O)C(C)(C)N(C)C2CCOCC2)on1 |  |  | < 4.30 | 7.03 |  |
| CN(CC1CCOCC1)C(C)(C)C(=O)Nc1cc(C2(O)CC2)no1 |  |  | < 4.30 | 7.89 |  |
| CN(CC1CCOCC1)C(C)(C)C(=O)Nc1nnc(C(C)(C)CO)s1 | < 4.30 | 7.96 |  |  |  |
| Cc1ncc(C(C)(C)c2cc(NC(=O)C(C)(C)N(C)C3CCOCC3)on2)o1 |  |  | 4.68 | 7.82 |  |
| CN(C1CCOCC1)C(C)(C)C(=O)Nc1cc(C(C)(C)C2CCOCC2)no1 |  |  | < 4.30 | 7.36 |  |
| CC(C)(NCCCC(F)(F)F)C(=O)Nc1cc(C(C)(C)OCCO)no1 | < 4.30 | 6.96 |  |  |  |
| CC(C)(NCCCC(F)(F)F)C(=O)Nc1cc(C2(CO)CCC2)no1 |  |  | < 4.30 | 7.27 |  |
| CC(C)(NCC1CCOCC1)C(=O)Nc1cc(C(C)(C)COC2CCCCO2)no1 (centres unmarked) | < 4.30 | 6.70 |  |  |  |
| CC(C)(NCC1CCOCC1)C(=O)Nc1cc(C(C)(C)CO)no1 | < 4.30 | 6.43 |  |  |  |
| CC(C)(NCCCC(F)(F)F)C(=O)Nc1cc(C(C)(C)CO)no1 |  |  | < 4.30 | 7.51 |  |

| SMILES | pEC50 (human CB1R; [1]) | pEC50 (human CB2R; [2]) | pEC50 (human CB1R) | pEC50 (human CB2R) | further results |
| --- | --- | --- | --- | --- | --- |
| CN(C(=O)CC1CCOCC1)C(C)(C)C(=O)Nc1cc(C(C)(C)CO)no1 |  |  | < 4.30 | 7.57 |  |
| CC(C)(NCCC1CCOCC1)C(=O)Nc1cc(C(C)(C)CO)no1 | < 4.30 | 6.95 |  |  |  |
| CC(C)(CO)c1cc(NC(=O)C(C)(C)N2CC[C@@H](O)C2)on1 | < 4.30 | 6.31 |  |  |  |
| CC[C@H](C)N(C)C(C)(C)C(=O)Nc1cc(C(C)(C)CO)no1 | < 4.30 | 6.66 |  |  |  |
| CN(CC1CC1)C(C)(C)C(=O)Nc1cc(C(C)(C)CO)no1 |  |  | 4.44 | 7.92 |  |
| CC(C)(N[C@H]1CC[C@@H](O)CC1)C(=O)Nc1cc(C(C)(C)CO)no1 | < 4.30 | 6.52 |  |  |  |
| CC(C)(N[C@H]1CC[C@@H](NS(C)(=O)=O)CC1)C(=O)Nc1cc(C(C)(C)CO)no1 |  |  | < 4.30 | 7.38 |  |
| CC(C)(CO)c1cc(NC(=O)C(C)(C)N2CCC(NS(C)(=O)=O)CC2)on1 |  |  | < 4.30 | 8.15 |  |
| CN(C[C@H]1CCCN(S(C)(=O)=O)C1)C(C)(C)C(=O)Nc1cc(C(C)(C)CO)no1 | < 4.30 | 6.90 |  |  |  |
| CN(CC1CCOC1)C(C)(C)C(=O)Nc1cc(C(C)(C)CO)no1 (centres unmarked) |  |  | < 4.30 | 7.54 |  |
| CN(C(=O)C[C@H]1CCOC1)C(C)(C)C(=O)Nc1cc(C(C)(C)CO)no1 |  |  | < 4.30 | 7.60 |  |
| CN(C1CC1)C(C)(C)C(=O)Nc1cc(C(C)(C)CO)no1 |  |  |  | 6.35 |  |
| CN(C1CCOCC1)C(C)(C)C(=O)Nc1cc(C(C)(C)COCCO)no1 |  |  | 4.42 | 7.82 |  |
| Cc1ncc(C(C)(C)c2cc(NC(=O)C(C)(C)NC3CCN(S(C)(=O)=O)CC3)on2)s1 | < 4.30 | 6.71 |  |  |  |
| CN(C(=O)CCC(F)(F)F)C(C)(C)C(=O)Nc1cc(C(C)(C)CO)no1 |  |  | < 4.30 | 7.16 |  |
| CN([C@@H]1CCN(S(C)(=O)=O)C1)C(C)(C)C(=O)Nc1cc(C(C)(C)CO)no1 |  |  | < 4.70 | 8.77 |  |
| CN([C@H]1CCN(S(C)(=O)=O)C1)C(C)(C)C(=O)Nc1cc(C(C)(C)CO)no1 |  |  | < 4.30 | 7.55 |  |
| CN(C[C@H]1COCCO1)C(C)(C)C(=O)Nc1cc(C(C)(C)CO)no1 |  |  | < 4.30 | 7.17 |  |
| CN(C[C@@H]1COCCO1)C(C)(C)C(=O)Nc1cc(C(C)(C)CO)no1 |  |  | < 4.30 | 7.40 |  |
| CN(C(=O)CCCC(F)(F)F)C(C)(C)C(=O)Nc1cc(C(C)(C)CO)no1 |  |  | 4.49 | 7.57 |  |
| CC(C)(NC1CCC(NS(C)(=O)=O)CC1)C(=O)Nc1nnn(C(C)(C)C)n1 (centres unmarked) |  |  |  |  | pEC50 (human CB1R; read-out: CB1 EC50, CHO cells expressing human CB1R, inhibition of forskolin-stimulated cAMP synthesis): < 4.30; pEC50 (human CB2R; read-out: CB2 EC50, CHO cells expressing human CB2R, inhibition of forskolin-stimulated cAMP synthesis): 7.48 |
